The text below walks through data of ChEMBL document CHEMBL5728088, “Aryl sulfonohydrazides” (2020).

The nature of this test: Biochemical Assay: Active Moz protein was expressed as N-terminal fusion protein with a His6 tag in BL21 E. coli cells. Protein purification was performed via nickel-immobilized metal ion affinity chromatography followed by gel filtration. […] The reactions were performed in assay buffer (100 mM Tris-HCl, pH 7.8, 15 mM NaCl, 1 mM EDTA, 0.01% Tween-20, 1 mM Dithiothreitol, and 0.02% m/v chicken egg white albumin). Reactions were set up with 0.4 μM Acetyl coenzyme A (AcCoA), 50 nM N-terminal histone H4 peptide (sequence […]-GGK-biotin), 10 nM MOZ enzyme, and an acetyl-lysine specific antibody (final dilution 1:10000). 11-point dilution series of the compounds of the invention were prepared in DMSO; a volume of 100 nL was transferred using a pin tool into assay plates containing substrates, before adding enzyme to start the reaction. Positive (no compound) and negative (AcCoA omitted) control reactions were included on the same plates and received the same amount of DMSO as the compound treated wells. After adding all reagents, the plates were sealed with adhesive seals and incubated for 90 minutes at room temperature. An additional 4 μL of assay buffer containing AlphaScreen® Protein A acceptor beads and Streptavidin donor beads (PerkinElmer, Waltham, Mass.) to a final concentration of 4 μg/mL was then added. […]. A general note: In gel filtration, larger molecules generally elute earlier.

Molecules are shown by their SMILES. pIC50: −log10 of the molar value.

As usually defined, the pIC50 is the negative decadic logarithm of the IC50, by convention in mol/L. Read a low pIC50 as a large IC50. The compound `O=C(NNS(=O)(=O)c1ccc2ccccc2c1)c1cccc(-c2cccnc2)c1` showed a pIC50 of 4.88.
Consider `O=C(NNS(=O)(=O)c1ccccc1F)c1cc(-c2ccc(F)cc2)ccc1F`, for which the pIC50 was 6.08.
